The record followed here is US20210228590A1, “TREATING INFLUENZA USING SUBSTITUTED POLYCYCLIC PYRIDONE DERIVATIVES AND PRODRUGS THEREOF” (priority 2018, published 2021).

For data set [1] the following is noted: in vivo.
For data set [2] the following is noted: rat, in vivo, po.
Data set [3] has as its system influenza A virus A/PR/8/34. Put plainly: Mouse model for delayed treatment: virus titers in lungs. The data set is classed as in vivo, BALB/c mice. To be noted: for virus in lungs: days 8 and 10 post infection, treatment from 72 hours, limit of detection 1.50 log10 TCID50/ml.
In data set [4] the test system is influenza A virus A/PR/8/34. The data set is described as follows: Mouse model for delayed treatment, lethal infection: survival and body weight. It counts as in vivo, BALB/c mice.

Take `CC(=O)Oc1c2n(ccc1=O)N([C@@H]1c3ccccc3SCc3c1ccc(F)c3F)[C@@H]1COCCN1C2=O` [II-4]: the “BA(%)” value in data set [1] is 20.0%.

On to `COC(=O)OCOc1c2n(ccc1=O)N([C@@H]1c3ccccc3SCc3c1ccc(F)c3F)[C@@H]1COCCN1C2=O` [II-6, baloxavir marboxil], for which the “concentration of Compound II-6 in plasma samples” value in data set [2] is “a determination limit or less”. Besides, the “virus titers in lung versus vehicle-treated group” value in data set [3] (BXM 1.5 and 15 mg/kg for 5 days from 72 hours post infection, days 4 and 6 post infection) was “significantly reduced compared with those in the vehicle-treated group”. Further, the “virus titer in lung versus OSP-treated group” value in data set [3] (BXM 1.5 and 15 mg/kg from 72 hours post infection, days 4 and 6 post infection) is given as “significantly lower than that in the group treated with 5 mg/kg of OSP”. Besides, in data set [3], the virus in lungs result is recorded as “No virus was detected”. The survival result in data set [4] (BXM 15 mg/kg orally twice daily for 5 days from 24, 48, or 72 hours post infection, observed to day 28) is “all mice treated with 1.5 and 15 mg/kg of BXM survived”. For the same compound, the “survival time versus vehicle-treated group” value in data set [4] (BXM from 24, 48, 72, and 96 hours post infection, P<0.01 or P<0.001) was “Significant differences in survival time”. For the same compound, the “body weight change versus vehicle-treated group” value in data set [4] (BXM from 24, 48, 72, or 96 hours post infection) was “significantly less reduction of body weight compared with the vehicle-treated group”. For the same compound, the “body weight loss versus OSP-treated group” value in data set [4] (BXM from 24, 48, 72 or 96 hour post infection, on indicated days) was “significantly less body weight loss than did the OSP-treated group”. Also, the “survival time versus OSP-treated group” value in data set [4] (BXM given from 72 and 96 hours post infection, OSP 5 mg/kg) is “significantly prolonged compared with that in OSP-treated group”.

For the compound `O=C1c2c(O)c(=O)ccn2N([C@@H]2c3ccccc3SCc3c2ccc(F)c3F)[C@@H]2COCCN12` [III-2, baloxavir acid], the “BA(%)” value in data set [1] is on record as 4.2%.

Turning to `CCOC(=O)C1=C[C@@H](OC(CC)CC)[C@H](NC(C)=O)[C@@H](N)C1` [OSP, Oseltamivir phosphate, reference compound], in data set [3] (OSP 5 mg/kg from 72 hours post infection, day 4 post infection), the “virus titers in lung versus vehicle-treated group” value is “Significant reduction in virus titers”. Also, in data set [3], the virus in lungs entry is listed as “No virus was detected”. Further, the “survival time versus vehicle-treated group” value in data set [4] (OSP 5 mg/kg twice daily for 5 days from 24 or 48 hours post infection) is “survived for a significant longer period than the vehicle-treated group”. Moreover, the “protection level (survival)” value in data set [4] (OSP 5 mg/kg twice daily for 5 days from 72 or 96 hours post infection) was “protection level was decreased”. Moreover, in data set [4] (OSP from 24 and 48 hours post infection), the “body weight loss versus control group” value is reported as “Significant inhibitions in body weight loss”. Further, the “body weight loss versus vehicle-treated group” value in data set [4] (OSP from 72 and 96 hours post infection) is given as “body weight loss comparable to the vehicle-treated group”.
